Experimental data from patent publication US20240287138A1, “CYCLIC PEPTIDES FOR INHIBITING TNF RECEPTOR 1 ACTIVITY” (Merck Sharp & Dohme LLC, priority 2023, published 2024).
Numbered stars: 1 amine (or outer) side, 2 acyl side, 3 side chain; on linkers, the order of the positions; unused ones are H or OH. Square brackets hold non-standard residues; d marks the D form. Peptide text beside a SMILES is read from it. * marks the point of attachment. Trp(βS-Me,7-OMe) = COc1cccc2c([C@H](C)[C@H](N)C(=O)O)c[nH]c12; dPro(trans-4-NMe3+) = C[N+](C)(C)[C@@H]1CN[C@@H](C(=O)O)C1; Trp(1-CH2COOH) = N[C@@H](Cc1cn(CC(=O)O)c2ccccc12)C(=O)O; Phe(4-SO2NH2) = N[C@@H](Cc1ccc(S(N)(=O)=O)cc1)C(=O)O; Trp(7-CN) = N#Cc1cccc2c(C[C@H](N)C(=O)O)c[nH]c12; X27 = O=C(O)c1ccc(C[C@H](N[*:1])C(=O)[*:2])cc1F; Phe(3-CONH2) = NC(=O)c1cccc(C[C@H](N)C(=O)O)c1; Phe(4-CONH2) = NC(=O)c1ccc(C[C@H](N)C(=O)O)cc1; Phe(4-COOH) = N[C@@H](Cc1ccc(C(=O)O)cc1)C(=O)O; Trp(7-aza) = N[C@@H](Cc1c[nH]c2ncccc12)C(=O)O; Pip(5R-OH) = O=C(O)[C@@H]1CC[C@@H](O)CN1; X1 = O=C([C@@H]1CC[C@H](N[*:1])C1)[*:2]; Gly(Nα-CH2CH2CONH2) = NC(=O)CCNCC(=O)O; Pip(4-aza) = O=C(O)[C@@H]1CNCCN1; 4Pal = N[C@@H](Cc1ccncc1)C(=O)O; dHyp = O=C(O)[C@H]1C[C@H](O)CN1; Ahp(2) = CCCCC[C@H](N)C(=O)O; αMeS = C[C@](N)(CO)C(=O)O; Carboxymethyl = O=C(O)C*; Nle = CCCC[C@H](N)C(=O)O; Sar = CNCC(=O)O

Columns and labels:
[1] = target: T1, human soluble TNFR1 (sTNFR1) (Homo sapiens, UniProt P19438); assay: Human sTNFR1-peptide displacement assay (LanthaScreen Eu TR-FRET binding assay)
T1 construct: made in house; host or cells: Sf21 (baculovirus)
T1 sequence (P19438 with tags, fused parts or gaps): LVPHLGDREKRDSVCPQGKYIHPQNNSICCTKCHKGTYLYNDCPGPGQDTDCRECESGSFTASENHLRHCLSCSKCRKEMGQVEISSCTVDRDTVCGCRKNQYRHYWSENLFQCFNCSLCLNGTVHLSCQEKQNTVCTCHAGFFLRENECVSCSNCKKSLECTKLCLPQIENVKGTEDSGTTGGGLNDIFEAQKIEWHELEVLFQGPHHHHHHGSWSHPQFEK
How it was run: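 Readout is the 665/615 nm TR-FRET ratio (Eu anti-His donor, streptavidin-Alexa647 acceptor), normalized to DMSO and saturating displacer, fit by Morrison-based five-parameter logistic for Kd^app. His-tagged sTNFR1 (1-211) prebound to 100 nM biotinylated peptide SEQ ID NO.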

human TNFR2 ECD protein = target: T2, human TNFR2 ECD protein (Homo sapiens, UniProt P20333); assay: SPR off-target binding (selectivity) to human TNFR2 ECD
T2 construct: HRV 3C protease cleavage site (C); 6His (C, cleaved yes); made in house; host or cells: Sf21 insect cells (baculovirus), secreted
T2 sequence (P20333 23-257): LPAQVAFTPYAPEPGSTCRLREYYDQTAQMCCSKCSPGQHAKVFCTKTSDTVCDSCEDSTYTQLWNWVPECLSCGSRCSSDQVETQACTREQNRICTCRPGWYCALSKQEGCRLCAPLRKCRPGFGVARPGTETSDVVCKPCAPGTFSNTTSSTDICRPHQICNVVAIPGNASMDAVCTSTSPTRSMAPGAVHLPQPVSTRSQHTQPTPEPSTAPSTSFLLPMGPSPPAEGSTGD
How it was run: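 Peptide binding kinetics read by SPR in HEPES pH 7.4 running buffer with 2% DMSO, with TNFR2 ECD tested in parallel for off-target binding. Receptor ECDs, insect-cell expressed and biotinylated at C-terminal avi-tag, were captured via streptavidin. KA derived from association and dissociation rate constants.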

For `CCCC[C@@H]1NC(=O)[C@@H]2CC[C@@H](C2)NC(=O)[C@H]([C@@H](C)c2c[nH]c3c(OC)cccc23)NC(=O)CN(C)C(=O)[C@H](Cc2ccc(C(=O)O)cc2)NC(=O)[C@H](Cc2ccc(S(N)(=O)=O)cc2)NC(=O)[C@](C)(CO)NC(=O)[C@H](Cc2c[nH]c3c(C#N)cccc23)NC(=O)[C@H](Cc2ccc(C(=O)O)cc2)NC(=O)[C@H](CC(N)=O)NC(=O)[C@H]2C[C@H](OCC(=O)O)CN2C(=O)[C@H](Cc2c[nH]c3ncccc23)NC(=O)[C@@H]2CC[C@@H](O)CN2C(=O)[C@H](Cc2ccncc2)NC1=O` [SEQ ID NO. 4] (cyclo([4Pal][Pip(5R-OH)][Trp(7-aza)][dHyp](Carboxymethyl)N[Phe(4-COOH)][Trp(7-CN)][αMeS][Phe(4-SO2NH2)][Phe(4-COOH)][Sar][Trp(βS-Me,7-OMe)][X1][Nle])), the Kd [1] was 0.09 nM and the Kd (human TNFR2 ECD protein) was > 1000 nM.

For `CCCC[C@@H]1NC(=O)[C@@H]2CC[C@@H](C2)NC(=O)[C@H]([C@@H](C)c2c[nH]c3c(OC)cccc23)NC(=O)CN(C)C(=O)[C@H](Cc2ccc(C(=O)O)cc2)NC(=O)[C@H](Cc2ccc(C(N)=O)cc2)NC(=O)[C@](C)(CO)NC(=O)[C@H](Cc2c[nH]c3c(C#N)cccc23)NC(=O)[C@H](Cc2ccc(C(=O)O)c(F)c2)NC(=O)[C@H](CC(N)=O)NC(=O)[C@H]2C[C@H](O)CN2C(=O)[C@H](Cc2c[nH]c3ncccc23)NC(=O)[C@@H]2CC[C@@H](O)CN2C(=O)[C@H](Cc2ccncc2)NC1=O` [SEQ ID NO. 8] (cyclo([4Pal][Pip(5R-OH)][Trp(7-aza)][dHyp]N[X27][Trp(7-CN)][αMeS][Phe(4-CONH2)][Phe(4-COOH)][Sar][Trp(βS-Me,7-OMe)][X1][Nle])), the Kd [1] was 0.1 nM and the Kd (human TNFR2 ECD protein) was > 1000 nM.

`CCCC[C@@H]1NC(=O)[C@@H]2CC[C@@H](C2)NC(=O)[C@H]([C@@H](C)c2c[nH]c3c(OC)cccc23)NC(=O)CN(C)C(=O)[C@H](Cc2ccc(C(N)=O)cc2)NC(=O)[C@H](Cc2ccc(S(N)(=O)=O)cc2)NC(=O)[C@](C)(CO)NC(=O)[C@H](Cc2c[nH]c3c(C#N)cccc23)NC(=O)[C@H](Cc2ccc(C(=O)O)cc2)NC(=O)[C@H](CC(N)=O)NC(=O)[C@H]2C[C@H]([N+](C)(C)C)CN2C(=O)[C@H](Cc2cn(CC(=O)O)c3ccccc23)NC(=O)[C@@H]2CC[C@@H](O)CN2C(=O)[C@H](Cc2ccncc2)NC1=O` [SEQ ID NO. 9] (cyclo([4Pal][Pip(5R-OH)][Trp(1-CH2COOH)][dPro(trans-4-NMe3+)]N[Phe(4-COOH)][Trp(7-CN)][αMeS][Phe(4-SO2NH2)][Phe(4-CONH2)][Sar][Trp(βS-Me,7-OMe)][X1][Nle])) was tested, and the Kd [1] was 0.05 nM and the Kd (human TNFR2 ECD protein) was > 1000 nM.

`CCCCC[C@@H]1NC(=O)[C@@H]2CC[C@@H](C2)NC(=O)[C@H]([C@@H](C)c2c[nH]c3c(OC)cccc23)NC(=O)CN(C)C(=O)[C@H](Cc2cccc(C(N)=O)c2)NC(=O)[C@H](Cc2ccc(C(N)=O)cc2)NC(=O)[C@](C)(CO)NC(=O)[C@H](Cc2c[nH]c3c(C#N)cccc23)NC(=O)[C@H](Cc2ccc(C(=O)O)cc2)NC(=O)[C@H](CC(N)=O)NC(=O)CN(CCC(N)=O)C(=O)[C@H](Cc2c[nH]c3ccccc23)NC(=O)[C@@H]2CNCCN2C(=O)[C@H](Cc2ccncc2)NC1=O` [SEQ ID NO. 10] (cyclo([4Pal][Pip(4-aza)]W[Gly(Nα-CH2CH2CONH2)]N[Phe(4-COOH)][Trp(7-CN)][αMeS][Phe(4-CONH2)][Phe(3-CONH2)][Sar][Trp(βS-Me,7-OMe)][X1][Ahp(2)])) was tested, and the Kd [1] was 0.1 nM and the Kd (human TNFR2 ECD protein) was > 1000 nM.

For `CCCC[C@@H]1NC(=O)[C@@H]2CC[C@@H](C2)NC(=O)[C@H]([C@@H](C)c2c[nH]c3c(OC)cccc23)NC(=O)CN(C)C(=O)[C@H](Cc2ccc(C(N)=O)cc2)NC(=O)[C@H](Cc2ccc(C(N)=O)cc2)NC(=O)[C@](C)(CO)NC(=O)[C@H](Cc2c[nH]c3c(C#N)cccc23)NC(=O)[C@H](Cc2ccc(C(=O)O)cc2)NC(=O)[C@H](CC(N)=O)NC(=O)[C@H]2C[C@H](OC)CN2C(=O)[C@H](Cc2c[nH]c3ccccc23)NC(=O)[C@@H]2CC[C@@H](O)CN2C(=O)[C@H](Cc2ccncc2)NC1=O` [SEQ ID NO. 14] (cyclo([4Pal][Pip(5R-OH)]W[dHyp](Me)N[Phe(4-COOH)][Trp(7-CN)][αMeS][Phe(4-CONH2)][Phe(4-CONH2)][Sar][Trp(βS-Me,7-OMe)][X1][Nle])), the Kd [1] was 0.03 nM and the Kd (human TNFR2 ECD protein) was > 1000 nM.
